Laboratory results: patent publication US9308222B2, “Formulas comprising highly soluble elements and vitamins for the prevention and amelioration of osteoporosis” (priority 2008, dated 2016)

What was measured:
[1] = fortified foods, dual isotope techniques; cited from earlier work
[2] = according to the literature; cited from earlier work
[3] = humans; cited from earlier work
[4] = Calcium, magnesium and zinc balance in rats receiving calcium free diet
Excerpt: Male Sprague-Dawley rats (about 6-7 weeks), with an initial weight between 220 g to 250 g, were randomly divided into different treatment groups. All the rats were housed in individual metabolic cages in a temperature-controlled room. Each rat received free access to the normal diet (Table 34) before the experiment. Both normal and calcium free diets (Table 34) were used in this set of studies. De-ionized water was provided ad libitum. All the rats were weighed before treatment.
In each study, there were seven treatment groups. […] Rats participating in the normal diet study received normal diet ad libitum throughout. Rats participating in the group of calcium free diet received the calcium free food ad libitum starting five days before and throughout treatment. In both study groups, animals received one dose a day for five days. […] Values of dosage and dietary intake were measured for the calculation of elemental balance. […] Daily elemental dosages, similar to that of human's, are 53.14 mg/kg for calcium, 0.38 to 55 mg/kg/day for magnesium and 0.017 to 2.5 mg/kg/day for zinc. […] The vehicle for preparing each dose was de-ionized water. The concentration of calcium in all dosage preparations was 15.94 mg/mL. One mL of each preparation was administered by gavage. Body weight, elemental dosage and diet consumption were recorded daily.
Animals were housed individually in a metabolic cage five days before the study. Food consumption was evaluated daily. Urine and feces were collected daily for four days and the content of calcium, magnesium and zinc was determined. On Day 5, each animal received its treatment. […] Immediately after blood collection, the animal was then sacrificed with an overdose of isoflourane. Each blood sample was centrifuged at 1900 rpm at room temperature; plasma was harvested and stored at −20° C. until analysis. Urine was measured daily; it was diluted with de-ionized water, filtered and an aliquot was stored at −20° C. until analysis. Daily fecal output was collected and lyophilized. Each sample was weighed and digested using a mixture of three volume of nitric acid and one volume of perchloric acid. For every gram of dried feces, 10 mL of acid mixture was added. Each sample was digested for three days. The volume of the digested sample was measured and an aliquot of the digest was stored at −20° C. until analysis. The content of calcium, magnesium and zinc in plasma, feces and urine were determined using ICP-OES.
Cumulated calcium balance and % cumulated net calcium balance were calculated using equations (1) and (2), except, the sum of daily intake and excretion was used for calculation. The balance for magnesium and zinc was also calculated using the concept of equations (1) and (2). Cumulated elemental balance and % cumulated net elemental balance were calculated in a similar fashion as described above.
All results were analyzed using two-way ANOVA. […] The data are presented as mean±S.D. and mean±S.E.M. in tables and figures, respectively.

[5] = rats; cited from earlier work

In the case of [O]=[Zn] [zinc oxide], the Bioavailability of zinc [1] is given as “approximately 24%”.
For O=C([O-])CC(O)(CC(=O)[O-])C(=O)[O-].O=C([O-])CC(O)(CC(=O)[O-])C(=O)[O-].[Ca+2].[Ca+2].[Ca+2] [calcium citrate], the Bioavailability of calcium [2] is given as 30%.
In the case of O=C([O-])[O-].[Ca+2] [calcium carbonate], the “Amount of calcium absorbed (bioavailability)” value [3] is listed as 24%.
In the case of Calcium Acetate, the “Bioavailability of calcium compared to calcium carbonate” value ([4]; Tables 36 and 40, dependent on the diet condition) is reported as “at least 2 fold”, the “Cumulative net percentage of calcium” value ([4]; calcium free diet, Day 1) is reported as −30.6 ± 51.3 ^ % and the “Cumulative net percentage of calcium” value ([4]; calcium free diet, Day 2) is reported as −9.88 ± 26.5 ^ %. For the same compound, the “Cumulative net percentage of calcium” value ([4]; calcium free diet, Day 3) was 4.88 ± 24.0 ^ % and the “Cumulative net percentage of calcium (calcium retention)” value ([4]; calcium free diet, Day 4) was 11.1 ± 20.0 ^ %.
For [O]=[Mg] [magnesium oxide], the Bioavailability of magnesium [5] is listed as 50%.
